“Also recorded” adds a separate entry of the source.
Legend:
[1] = target: T1, EphA1 (Homo sapiens, UniProt P21709); assay: Eph receptor activation in HEK 293 cells overexpressing EphA1; format: cell-based; details: HEK 293 cells overexpressing EphA1, same concentrations, 60 minutes
T1 construct: expressed in transfected cells; host or cells: HEK 293
T1 sequence (P21709 26-976): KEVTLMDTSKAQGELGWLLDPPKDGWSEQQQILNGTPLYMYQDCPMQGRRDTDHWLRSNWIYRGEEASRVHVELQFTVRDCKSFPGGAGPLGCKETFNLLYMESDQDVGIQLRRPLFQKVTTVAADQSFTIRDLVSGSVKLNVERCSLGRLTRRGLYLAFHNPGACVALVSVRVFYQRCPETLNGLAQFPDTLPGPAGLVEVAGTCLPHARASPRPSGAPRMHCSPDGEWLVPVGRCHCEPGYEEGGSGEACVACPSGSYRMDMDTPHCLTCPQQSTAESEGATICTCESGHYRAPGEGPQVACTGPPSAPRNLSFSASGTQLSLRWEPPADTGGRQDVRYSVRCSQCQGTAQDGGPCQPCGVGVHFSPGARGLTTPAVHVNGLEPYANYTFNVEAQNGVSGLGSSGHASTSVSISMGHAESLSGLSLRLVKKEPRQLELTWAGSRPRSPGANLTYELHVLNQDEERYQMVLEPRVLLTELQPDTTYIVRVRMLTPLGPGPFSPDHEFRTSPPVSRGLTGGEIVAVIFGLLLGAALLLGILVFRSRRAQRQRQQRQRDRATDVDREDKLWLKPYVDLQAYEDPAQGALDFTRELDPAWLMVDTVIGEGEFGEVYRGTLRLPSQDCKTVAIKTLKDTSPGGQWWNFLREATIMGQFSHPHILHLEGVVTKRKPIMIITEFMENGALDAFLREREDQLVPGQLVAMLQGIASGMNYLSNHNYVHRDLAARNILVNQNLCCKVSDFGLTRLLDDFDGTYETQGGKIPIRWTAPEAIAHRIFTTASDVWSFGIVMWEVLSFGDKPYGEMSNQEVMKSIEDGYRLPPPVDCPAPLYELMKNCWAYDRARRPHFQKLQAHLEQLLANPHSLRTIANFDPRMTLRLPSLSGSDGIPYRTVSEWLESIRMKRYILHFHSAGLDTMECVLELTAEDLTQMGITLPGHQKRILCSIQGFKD
Protocol: Cells were plated in 24-well dishes at a density of 100,000 cells/well and grown for 24 hours prior to stimulation with appropriate compounds and ephrins for the given amounts of time. Compounds were prepared in DMSO at 500 times the final concentrations and 0.2% DMSO was used as vehicle control. Following treatment, cells were lysed directly in SDS Gel Loading Buffer and immunoblotted as described previously. […] For this purpose, HEK 293 cell lines overexpressing EphA1, EphA2, EphA3, EphA4, and EphB3 kinases were utilized.

[2] = system: ERK and Akt; assay: ERK and Akt inhibition in LK133A-Vec and LK133A-A2 liver epithelial cells (immunoblot); format: cell-based, mice
Protocol: (§1) Cells were plated in 24-well dishes at a density of 100,000 cells/well and grown for 24 hours prior to stimulation with appropriate compounds and ephrins for the given amounts of time. Compounds were prepared in DMSO at 500 times the final concentrations and 0.2% DMSO was used as vehicle control. Following treatment, cells were lysed directly in SDS Gel Loading Buffer and immunoblotted as described previously. Immunoprecipitation and immunofluorescence staining was performed as described. For immunoprecipitation, 300,000 cells/well were plated in 6-well dishes and lysed in modified RIPA Buffer (20 mM Tris-HCl pH 7.4, 20 mM NaF, 150 mM NaCl, 10% glycerol, 0.1% SDS, 0.5% DCA, 2 mM EDTA, 1% Triton X-100) following treatment. Either […] of ephrin-A1-Fc, or […] of EphA2 mouse monoclonal antibody (Clone D7, Millipore) were used, and mouse IgG was used as a negative control for EphA2 IP.
To address this question, we utilized an immortalized liver epithelial cell line, LK133A, isolated from a hepatoma induced by DEN in EphA2 knockout mice. Retroviral vector was used to restore EphA2 expression in these cells (LK133A-A2), and cells transduced with an empty vector were used as control (LK133AVec).

[3] = target: T2, EphA2 (Homo sapiens, UniProt P29317); assay: Internalization of endogenous EphA2 in parental MDA-MB-231 cells (immunofluorescence); format: cell-based; details: two hours, 50 μM
T2 sequence (P29317 24-976): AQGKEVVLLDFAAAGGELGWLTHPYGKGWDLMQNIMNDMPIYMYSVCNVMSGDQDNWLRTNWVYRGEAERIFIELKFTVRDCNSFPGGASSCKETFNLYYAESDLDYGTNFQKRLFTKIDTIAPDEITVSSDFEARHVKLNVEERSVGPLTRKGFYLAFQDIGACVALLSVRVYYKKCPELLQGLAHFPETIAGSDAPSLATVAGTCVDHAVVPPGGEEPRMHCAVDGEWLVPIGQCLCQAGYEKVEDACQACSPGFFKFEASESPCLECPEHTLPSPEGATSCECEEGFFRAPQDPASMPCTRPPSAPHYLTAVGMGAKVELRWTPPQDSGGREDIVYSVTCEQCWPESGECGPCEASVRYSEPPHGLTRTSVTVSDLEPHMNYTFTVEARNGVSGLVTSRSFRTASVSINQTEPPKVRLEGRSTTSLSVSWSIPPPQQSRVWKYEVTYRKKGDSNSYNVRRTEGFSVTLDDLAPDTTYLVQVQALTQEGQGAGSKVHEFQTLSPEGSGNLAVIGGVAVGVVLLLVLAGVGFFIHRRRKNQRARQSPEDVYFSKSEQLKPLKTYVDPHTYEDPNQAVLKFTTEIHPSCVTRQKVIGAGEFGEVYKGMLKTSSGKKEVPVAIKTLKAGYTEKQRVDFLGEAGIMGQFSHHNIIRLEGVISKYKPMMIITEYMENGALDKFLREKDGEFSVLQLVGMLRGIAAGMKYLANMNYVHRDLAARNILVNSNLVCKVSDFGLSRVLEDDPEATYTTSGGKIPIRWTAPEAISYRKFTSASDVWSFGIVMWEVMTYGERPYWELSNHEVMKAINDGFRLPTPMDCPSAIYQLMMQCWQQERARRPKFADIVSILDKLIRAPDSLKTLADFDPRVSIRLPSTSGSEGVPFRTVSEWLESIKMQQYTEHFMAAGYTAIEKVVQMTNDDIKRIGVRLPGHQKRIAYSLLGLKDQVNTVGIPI
Protocol: as §1
(§2) Similar to other receptor tyrosine kinases, activation of the EphA2 receptor by its ligand, ephrin-A1, results in receptor internalization and eventual degradation. […] This was first performed using the U373 glioma cell line engineered to overexpress EphA2.

[4] = target: T2, EphA2; assay: EphA2 receptor internalization in U373-A2 glioma cells (immunofluorescence); format: cell-based; set-up: expressed in transfected cells; host or cells: MDA-MB-231 (MDA-231-A2), HEK 293 (HEK 293-A2), A172 (A172-A2), U373 (U373-A2); details: 60 min, 50 μM DZ or 1 μg/ml ephrin-A1-Fc
Protocol: as §1, §2

[5] = system: A172-A2 glioma cells; assay: Haptotactic cell migration toward fibronectin (modified Boyden chamber); format: cell-based; details: 4 hours
Excerpt: (§3) One of the well-established functions of Eph receptors is the ligand-dependent repulsive guidance of cell migration. As a ligand-mimicking agonist for EphA2, doxazosin is expected to activate EphA2 on tumor cells and repulse migrating tumor cells in vitro. To test this possibility, we first investigated the effects of doxazosin on integrin-mediated haptotactic cell migration toward fibronectin in a modified Boyden chamber cell migration assay. […] The inhibitory effects were observed when doxazosin was presented either in the bottom chamber, or in both top and bottom chambers in the Transwell assay system. […] Therefore, doxazosin can recapitulate a key function attributed to its native ligands, i.e., negative regulation of cell migration.

[6] = system: MDA-MB-231 breast cancer cells; assay: as above; format: cell-based; details: MDA-MB-231 cells, 4 hours
Excerpt: as §3

[7] = system: DU145 and PC-3 cell xenografts; details: previously shown, independent of α1-adrenoreceptor; cited from earlier work

Compound: COc1cc2nc(N3CCN(C(=O)C4COc5ccccc5O4)CC3)nc(N)c2cc1OC (centres unmarked) [doxazosin]
- EphA1 activation, Eph receptor panel [1]: no activation of EphA1
- ERK and Akt inhibition after reintroduction of EphA2 expression ([2]; LK133A-A2 cells): restored ERK and Akt inhibition
- inhibition of ERK and Akt activities in the absence of EphA2 ([2]; LK133A-Vec cells (EphA2 knockout, empty vector)): neither doxazosin nor ephrin-A1-Fc was able to inhibit ERK and Akt activities; also recorded: notable increase in ERK and Akt activation
- internalization of endogenous EphA2 [3]: significant internalization of the endogenous EphA2
- EphA2 internalization [4]: significant EphA2 internalization
- haptotactic cell migration toward fibronectin [5]: dose-dependent inhibition of cell migration
- haptotactic cell migration toward fibronectin [6]: dose-dependent inhibition of cell migration
- subcutaneous growth of DU145 and PC-3 cell xenografts [7]: moderately decrease subcutaneous growth
